# Assay results reported in patent US20250368629A1, “FLAVONOID COMPOUNDS AND METHODS AND MATERIALS FOR USING FLAVONOID COMPOUNDS TO TREAT FIBROTIC CONDITIONS” (Mayo Foundation for Medical Education and Research, priority 2022, published 2025).
# Assays:
# [1] = system: senescent human adult lung fibroblasts; assay: Apoptosis of senescent lung fibroblasts (cleaved caspase-3, DAPI); format: cell-based; details: Fibroblast; replicatively senescent human adult lung fibroblasts, 96 hours, 6-point dose-response, N=3
# Experimental: Human adult lung fibroblasts were replicatively passaged until senescence (confirmed by RNA and senescence associated beta galactosidase staining). In a parallel experiment, low passage proliferating fibroblasts from the same donor were compared. Cells were plated into 96-well plates and treated with the indicated compound (6-point dose-response) and incubated for 96 hours. Cells were then fixed using 4% PFA, permeabilized using 0.25% triton x-100, and nuclear stained using a primary antibody for cleaved caspase-3, secondary fluorescence conjugated antibody, and DAPI. Cells were then imaged using a 4× objective on a Cytation5 microscope and cell counts were quantified using automated software (Biotek Gen5). Data shown are the EC50 values calculated for each compounds efficacy to induce apoptosis in senescence vs. proliferating lung fibroblasts, from the calculated dose-response curves, N=3 independent experiments.
# [2] = target: T1, STK17B (Homo sapiens, UniProt O94768); assay: Kinase dose response curve on STK17B; format: biochemical; details: FIG. 4A, read-out: half maximal inhibitory concentration (IC50) on STK17B
# T1 construct: purchased Reaction Biology
# T1 sequence (O94768 1-372): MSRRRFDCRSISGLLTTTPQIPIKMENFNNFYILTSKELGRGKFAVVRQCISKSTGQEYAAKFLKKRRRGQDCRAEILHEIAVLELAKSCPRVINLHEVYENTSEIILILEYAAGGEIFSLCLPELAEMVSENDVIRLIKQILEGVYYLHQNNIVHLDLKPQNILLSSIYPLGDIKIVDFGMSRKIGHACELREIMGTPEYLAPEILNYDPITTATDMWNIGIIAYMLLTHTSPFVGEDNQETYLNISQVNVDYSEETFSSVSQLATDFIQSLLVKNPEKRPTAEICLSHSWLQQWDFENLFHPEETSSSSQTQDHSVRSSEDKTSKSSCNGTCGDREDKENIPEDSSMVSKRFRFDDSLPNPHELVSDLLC
# Experimental: FIGS. 4A-4B show mechanism of action of F-4N. […] Dose response curves on STK17A and STK17B show half maximal inhibitory concentration (IC50) values of ˜200 nM. […] FIG. 4A. F-4N was sent to Reaction Biology to be tested against their entire wild-type kinase panel. 1 μM F-4N was tested in an ATP competition assay against 420+ kinases. Z-scores were calculated to identify true hits over noise.
# [3] = system: 10-18-month-old C57/B6 mice; assay: Non-resolving model of lung fibrosis (bleomycin, aged mice); format: in vivo, mouse
# Experimental: FIG. 3. Lung fibrosis was induced in 10-18-month-old C57/B6 mice (average ˜15-months) using intratracheal bleomycin (1.1 units/kg) on day 0 of the study. On day 14 one group was administered F-4N (10 mg/kg daily i.p.) for 14 days prior to harvesting the lung for outcomes and senescence clearance and fibrosis. Lung architecture and fibrosis were observed by trichome histological staining and hydroxyproline content. Hydroxyproline content was measured using a hydroxyproline assay kit (Biovision) according to the manufacturer's instructions with slight modification. The lung tissues were weighed, homogenized in sterile water (10 mg of tissue per 100 μL H2O) and hydrolyzed in 12 M HCl in a pressure-tight, Teflon capped vial at 120° C. for 3 hours followed by filtration through a 45 μm Spin-X Centrifuge Tube filter (Corning). Ten μL of the hydrolyzed samples was dried in a Speed-Vac for 2 hours, followed by incubation with 100 μL of Chloramine T reagent for 5 minutes at room temperature and 100 μL of 4-(Dimethylamino)benzaldehyde (DMAB) for 90 minutes at 60° C. The absorbance of oxidized hydroxyproline was determined at 560 nm. Hydroxyproline concentrations were calculated from a standard curve generated using known concentrations of trans-4-hydroxyl-L-proline. The total amount of protein isolated from the weighed tissues was determined by using a protein assay kit (Bio-Rad, absorbance at 595 nm). The amount of collagen was expressed in μg/mg total protein. qPCR: RNA isolation using RNeasy Plus Mini Kit (Qiagen) according to the manufacturer's instructions. Isolated RNA (250 ng) was then used to synthesize cDNA using SuperScript VILO (Invitrogen). Quantitative PCR was performed using FastStart Essential DNA Green Master (Roche) and analyzed using a LightCycler 96 (Roche). Data are expressed as a fold change by ΔΔCt relative to glyceraldehyde-3-phosphate dehydrogenase (GAPDH).
# [4] = system: Mdr2-/- mice; assay: Mdr2-/- mouse model of PSC with established liver fibrosis, i.p. treatment; format: in vivo; details: 10 mg/kg/daily i.p. for 14 days
# Experimental: FIG. 6. Biochemical and histological examination of fibrosis in Mdr2^−/− mice treated with vehicle or F-4N. Mdr2^−/− mice (18-20 weeks old) with established liver fibrosis were treated with F-4N (10 mg/kg/daily i.p. n=10) or vehicle (i.p. n=10) for 14 days, then sacrificed the next day. Liver tissue and serum were collected for analysis. Left panel. […] Right panels.
# Hydroxyproline content was measured using a hydroxyproline assay kit (Biovision) according to the manufacturer's instructions with slight modification. The liver tissues were weighed, homogenized in sterile water (10 mg of tissue per 100 μL H2O) and hydrolyzed in 12 M HCl in a pressure-tight, Teflon capped vial at 120° C. for 3 hours followed by filtration through a 45 μm Spin-X Centrifuge Tube filter (Corning). Ten μL of the hydrolyzed samples was dried in a Speed-Vac for 2 hours, followed by incubation with 100 μL of Chloramine T reagent for 5 minutes at room temperature and 100 μL of 4-(dimethylamino)benzaldehyde (DMAB) for 90 minutes at 60° C. The absorbance of oxidized hydroxyproline was determined at 560 nm. Hydroxyproline concentrations were calculated from a standard curve generated using known concentrations of trans-4-hydroxyl-L-proline. The total amount of protein isolated from the weighed tissues was determined by using a protein assay kit (Bio-Rad, absorbance at 595 nm). The amount of collagen was expressed in μg/mg total protein.
# The slides were then stained with a solution containing 0.1% picrosirius red (Direct Red 80) and 0.1% fast green (counterstain) in saturated aqueous solution of picric acid, for 60 minutes at room temperature, followed by one wash in distilled water, de-hydration in 3 changes of 100% EtOH, clear in xylene and mount in resinous medium.
# Serum alanine aminotransferase (ALT), alkaline phosphatase (ALP) and total bile acids were measured using a commercially available veterinary chemistry analyzer (VetScan 2, Abaxis).
# RNA isolation using RNeasy Plus Mini Kit (Qiagen) according to the manufacturer's instructions. Isolated RNA (250 ng) was then used to synthesize cDNA using SuperScript VILO (Invitrogen). Quantitative PCR was performed using FastStart Essential DNA Green Master (Roche) and analyzed using a LightCycler 96 (Roche). Data are expressed as a fold change by ΔΔCt relative to glyceraldehyde-3-phosphate dehydrogenase (GAPDH).
# [5] = 10 mg/kg daily i.p. for 14 days
# [6] = 10 mg/kg daily i.p. for 14 days, qPCR
smiles,measurement,setting,value
O=c1c(O)c(-c2ccc(OCc3ccncc3)cc2)oc2ccccc12 [F—4N],EC50,[1],800 nM
same,IC50,[2],~200 nM
same,fibrosis and lung architecture by trichrome histological staining,[3]; [5],less fibrosis and improved lung architecture
same,lung hydroxyproline content,[3]; [5],reduced
same,whole lung expression of Collagen I,[3]; [6],reduced expression
same,"whole lung expression of senescence markers (Cdkn2a, Cdkn1a, Ccl2)",[3]; [6],reduced expression
same,survival following bleomycin-induced fibrosis,[3]; 10 mg/kg daily i.p. from day 14,improved survival
same,reduction of liver collagen content (hydroxyproline assay) compared to vehicle control,[4],~40%
same,"Liver function tests: ALT, ALP and serum bile acid values",[4]; compared to vehicle,significantly reduced
same,"RT-PCR of whole liver RNA: Col1a1, Il6, Ccl2, Cdkn1a, Cdkn2a",[4]; compared to vehicle,significantly reduced
same,Picrosirius red staining of liver collagen fibers,[4]; particularly portal-to-portal areas,reduction of collagen fibers
